The supplement of paper PMC10307832

Experiments:
Assay in all cases: relative viability (nuclei count vs DMSO), 5 days (fraction); higher = more cells survive
Dactolisib + Alpelisib = compound: Cn1c(=O)n(-c2ccc(C(C)(C)C#N)cc2)c2c3cc(-c4cnc5ccccc5c4)ccc3ncc21 [Dactolisib] + Cc1nc(NC(=O)N2CCC[C@H]2C(N)=O)sc1-c1ccnc(C(C)(C)C(F)(F)F)c1 [Alpelisib] (partner 2 µM)
Outline: (§1)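 Lung cancer cell lines were seeded in 1536-well plates and dosed by pin tool the next day, with either a single drug or a fixed anchor-drug dose combined with five library-drug doses (not always all listed) spaced in √10 steps. Five days later, one step fixed the cells and stained their nuclei (final 0.05% Triton X-100, 1% formaldehyde, 1 ug/ml Hoechst), and nuclei were counted on 4× images. Relative viability is the nuclei count in treated wells divided by the count in vehicle wells, and each value is the median of duplicate plates.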

AZ505 + OSI-027 = compound: C1CCC(CC1)N(CCNCCC2=C3C(=C(C=C2)O)NC(=O)CO3)C(=O)CCNCCC4=CC(=C(C=C4)Cl)Cl [AZ505] + COc1cccc2cc(-c3nc([C@H]4CC[C@H](C(=O)O)CC4)n4ncnc(N)c34)[nH]c12 [OSI-027] (partner 0.5 µM)
Outline: as §1

AZ505 + Tozasertib = compound: C1CCC(CC1)N(CCNCCC2=C3C(=C(C=C2)O)NC(=O)CO3)C(=O)CCNCCC4=CC(=C(C=C4)Cl)Cl [AZ505] + Cc1cc(Nc2cc(N3CCN(C)CC3)nc(Sc3ccc(NC(=O)C4CC4)cc3)n2)n[nH]1 [Tozasertib] (partner 0.1 µM)
Outline: as §1

AZ505 + AZD7762 = compound: C1CCC(CC1)N(CCNCCC2=C3C(=C(C=C2)O)NC(=O)CO3)C(=O)CCNCCC4=CC(=C(C=C4)Cl)Cl [AZ505] + NC(=O)Nc1cc(-c2cccc(F)c2)sc1C(=O)N[C@H]1CCCNC1 [AZD7762] (partner 0.2 µM)
Outline: as §1

Row | Cell Line | relative viability (Dactolisib + Alpelisib; first compound 0.002 µM) | relative viability (Dactolisib + Alpelisib; first compound 0.006325 µM) | relative viability (Dactolisib + Alpelisib; first compound 0.02 µM) | relative viability (Dactolisib + Alpelisib; first compound 0.06325 µM) | relative viability (Dactolisib + Alpelisib; first compound 0.2 µM) | relative viability (AZ505 + OSI-027; first compound 0.08 µM) | relative viability (AZ505 + OSI-027; first compound 0.253 µM) | relative viability (AZ505 + OSI-027; first compound 0.8 µM) | relative viability (AZ505 + OSI-027; first compound 2.53 µM) | relative viability (AZ505 + OSI-027; first compound 8 µM) | relative viability (AZ505 + Tozasertib; first compound 0.08 µM) | relative viability (AZ505 + Tozasertib; first compound 0.253 µM) | relative viability (AZ505 + Tozasertib; first compound 0.8 µM) | relative viability (AZ505 + Tozasertib; first compound 2.53 µM) | relative viability (AZ505 + Tozasertib; first compound 8 µM) | relative viability (AZ505 + AZD7762; first compound 0.08 µM) | relative viability (AZ505 + AZD7762; first compound 0.253 µM) | relative viability (AZ505 + AZD7762; first compound 0.8 µM) | relative viability (AZ505 + AZD7762; first compound 2.53 µM) | relative viability (AZ505 + AZD7762; first compound 8 µM)
1 | NCI-H1299 | 1.07 | 1.08 | 1.1 | 0.829 | 0.905 |  |  |  |  |  |  |  |  |  |  |  |  |  |  | 
2 | NCI-H1650 |  |  |  |  |  | 0.7 | 0.677 | 0.672 | 0.554 | 0.806 | 0.313 | 0.448 | 0.496 | 0.369 | 0.321 |  |  |  |  | 
3 | COR-L 105 | 1.02 | 0.915 | 1.12 | 0.436 | 0.297 | 0.626 | 0.572 | 0.615 | 0.62 | 0.752 | 0.354 | 0.34 | 0.341 | 0.335 | 0.403 |  |  |  |  | 
4 | ChaGo-K-1 |  |  |  |  |  | 0.53 | 0.448 | 0.593 | 0.699 | 0.537 | 0.2 | 0.232 | 0.244 | 0.216 | 0.238 | 0.73 | 0.836 | 0.766 | 0.888 | 0.886
5 | NCI-H2228 | 0.786 | 0.461 | 0.421 | 0.198 | 0.234 | 0.382 | 0.341 | 0.49 | 0.485 | 0.477 | 0.23 | 0.279 | 0.164 | 0.206 | 0.236 |  |  |  |  | 
6 | SW 900 |  |  |  |  |  | 0.441 | 0.427 | 0.623 | 0.753 | 0.702 | 0.439 | 0.665 | 0.713 | 0.614 | 0.544 | 0.576 | 0.295 | 0.611 | 0.569 | 0.75
7 | NCI-H661 | 0.823 | 0.6 | 0.62 | 0.484 | 0.225 | 0.681 | 0.8 | 0.666 | 0.695 | 0.715 | 0.356 | 0.377 | 0.351 | 0.32 | 0.367 |  |  |  |  | 
8 | NCI-H1563 | 0.851 | 0.86 | 0.706 | 0.605 | 0.588 | 0.801 | 0.811 | 0.789 | 0.702 | 0.735 |  |  |  |  |  |  |  |  |  | 
9 | A549 | 0.966 | 0.715 | 0.614 | 0.146 | 0.083 |  |  |  |  |  |  |  |  |  |  |  |  |  |  | 
10 | NCI-H2342 |  |  |  |  |  | 0.604 | 0.712 | 0.765 | 0.587 | 0.671 | 0.441 | 0.625 | 0.559 | 0.509 | 0.618 | 0.538 | 0.488 | 0.489 | 0.686 | 0.563
11 | NCI-H1623 |  |  |  |  |  | 0.423 | 0.405 | 0.452 | 0.476 | 0.398 | 0.454 | 0.457 | 0.425 | 0.445 | 0.443 |  |  |  |  | 
12 | NCI-H522 |  |  |  |  |  | 0.713 | 0.583 | 0.691 | 0.812 | 0.809 | 0.459 | 0.552 | 0.488 | 0.603 | 0.674 | 0.678 | 0.747 | 0.727 | 1.11 | 0.887
13 | IA-LM | 0.636 | 0.663 | 0.793 | 0.179 | 0.186 |  |  |  |  |  |  |  |  |  |  |  |  |  |  | 
14 | EBC-1 | 0.832 | 0.742 | 0.58 | 0.243 | 0.207 |  |  |  |  |  |  |  |  |  |  |  |  |  |  | 
